Results from patent US9880084B2, “Apparatus for separation of particles” (THE UNIVERSITY OF BRITISH COLUMBIA, priority 2011, dated 2018).

System: red blood cells
Experiment: Red blood cell deformability analysis in microfluidic funnel constriction device (threshold pressure / cortical tension)
Format: cell-based
Conditions: for Average cortical tension calculated based on equation (1): number in brackets = cells tested
Description: The deformability of red blood cells was evaluated using a microfluidic cell separation apparatus. An apparatus comprising a serial funnel configuration (schematically represented in FIG. 4) was employed, with funnel constructions of W0=0.5, 1, 1.5, 2, 3, 4, 5 and 6, 7 μm in series. As red blood cells are toroid or disc-shaped, rather than generally spherical, in the absence of movement restriction, they may progress through the device as a ‘flat’ disk (e.g. sideways), or ‘on edge’ (substantially upright, like a wheel). A channel with a height of about 2-3 μm or less will confine the majority of red blood cells to migrate as a ‘flat disk, while a channel with a height greater than about 3-4 μm will allow the red blood cell to migrate in either configuration, or folded or at an angle. Thus, the apparatus was configured to provide a channel depth of about 3 μm, which confines the cell to move flat into the funnel, not to stand up and fold as it traverses through. The threshold pressure required to push the cell through the funnel is measured as an indicator of the whole cell rigidity or deformability. The minimum applied pressure differential is ˜0.3 Pa. Accordingly, the cortical tension of the cell can be measured based on the information of the cell radius, funnel geometry and measured threshold pressure, as governed by equation (1) above derived from Laplace law PMS (phenazine methosulfate) generates superoxide from within the cell in the same way as the auto-oxidation process inside of the sickled red blood cell (RBC). In response to oxidation, the cell membrane stiffens. This induced stiffening may be employed to simulate the microrheologic properties of dense and/or dehydrated sickle cells (Hebbel, R. P., A. Leung, and N. Mohandas, Oxidation-Induced Changes in Microrheologic Properties of the Red-Blood-Cell Membrane. Blood, 1990. 76(5): p. 1015-1020, Hebbel, R. P., The sickle erythrocyte in double jeopardy: autoxidation and iron decompartmentalization. Seminars in hematology, 1990. 27(1): p. 51-69, and references therein). Here we use microfluidic device to measure the rigidity of PMS treated red blood cells compared to untreated (control) red blood cells, as well as the degree of rigidity change corresponding to different concentration of PMS. RBCs were suspended at 20% hematocrit in balanced salt solution with antibiotics. The RBC suspensions were then modified with 0, 10, 25, and 50 μM PMS for 60 minutes, followed by dilution 200:1 using phosphate buffered saline for use with the apparatus. The PMS treated RBCs and control RBCs were tested to investigate the effect of PMS on rigidity and/or deformability of the RBCs. Measured threshold pressures are an indication of the changes in deformability. […] Threshold pressures were measured of RBC squeezing through 1.1 μm and 1.4 μm constrictions.

With COS(=O)(=O)[O-].C[n+]1c2ccccc2nc2ccccc21 [PMS, phenazine methosulfate] the “Threshold pressure of RBC squeezing through constrictions” value (1.1 μm and 1.4 μm constrictions, 0, 10, 25, 50 μM PMS, FIG. 15) was “increases as the concentration increases”, the “Deformability of the red cell membrane” value (PMS 10 to 50 μM) was “decreases as the PMS concentration increases” and the “Average cortical tension calculated based on equation (1)” value (RBC treated with 10 μmol PMS for 60 minutes) was 2.29 ± 0.19 (7) pN/μm. For the same compound, the “Average cortical tension calculated based on equation (1)” value (RBC treated with 25 μmol PMS for 60 minutes) was 3.38 ± 0.30 (7) pN/μm, the “Average cortical tension calculated based on equation (1)” value (RBC treated with 50 μmol PMS for 60 minutes) was 4.17 ± 0.19 (8) pN/μm and the “Red cell rigidity versus normal control RBC” value (fresh from the PMS treatment) was “obvious increase in rigidity”.
